Test results from publication PMC12630350, “Direct coupling of lactate oxidation with butyryl-CoA formation via a canonical electron transfer flavoprotein in Fusobacterium nucleatum” (The Journal of Biological Chemistry, 2025).

Target: T1, ETFFN (EtfAB, FN1533-FN1534) (Fusobacterium polymorphum, UniProt A0A1Z3CIN2+A0A1Z3CJK5)
T1 construct: gene CBG50_09400; heterodimer, His6 tag on N-terminus of EtfB; EtfA 34,980 Da, tagged EtfB 30,560 Da; E. coli BL21(DE3)
T1 sequence (A0A1Z3CIN2 1-322): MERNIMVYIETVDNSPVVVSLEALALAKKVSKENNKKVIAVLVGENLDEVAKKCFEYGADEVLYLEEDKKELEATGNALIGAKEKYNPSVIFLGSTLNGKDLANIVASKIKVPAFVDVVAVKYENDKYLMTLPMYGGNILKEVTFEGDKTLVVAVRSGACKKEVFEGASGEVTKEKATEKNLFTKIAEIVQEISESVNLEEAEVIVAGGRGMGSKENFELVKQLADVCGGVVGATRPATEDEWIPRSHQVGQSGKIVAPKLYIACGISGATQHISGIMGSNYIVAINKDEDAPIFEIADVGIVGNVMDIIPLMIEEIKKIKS
T1 sequence (A0A1Z3CJK5 1-259): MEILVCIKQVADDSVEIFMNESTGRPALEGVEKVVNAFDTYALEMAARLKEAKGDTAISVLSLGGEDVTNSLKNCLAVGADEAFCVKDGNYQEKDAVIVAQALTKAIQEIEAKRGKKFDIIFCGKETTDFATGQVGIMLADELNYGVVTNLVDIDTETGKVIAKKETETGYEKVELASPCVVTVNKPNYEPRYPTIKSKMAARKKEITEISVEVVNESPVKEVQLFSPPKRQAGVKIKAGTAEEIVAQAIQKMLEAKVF
Experiment: UV-visible spectrum; FAD released by heat denaturation
Format: binding
Conditions: copurified; FAD in alpha-subunit; FAD to protein ratio determined

Cc1cc2nc3c(=O)[nH]c(=O)nc-3n(C[C@H](O)[C@H](O)[C@H](O)COP(=O)(O)OP(=O)(O)OC[C@H]3O[C@@H](n4cnc5c(N)ncnc54)[C@H](O)[C@@H]3O)c2cc1C [FAD]
UV-visible spectrum; FAD released by heat denaturation: diagnostic of the FAD cofactor
